Test results reported in patent publication US20220290122A1 (Whitehead Institute for Biomedical Research, priority 2019, published 2022).

Tested on: MCART1-null Jurkat cells
Test: Cell proliferation assay with metabolite supplementation (metabolite rescue)
Format: cell-based, human
Details: RPMI media; 1 mM pyruvate and 100 μg/ml uridine, 1 mM formate or 0.1 mM/16 μM hypoxanthine/thymidine added at the beginning of the culture period; FIG. 5M
Experimental: Unless otherwise indicated, Jurkat and K562 cells were cultured in RPMI (Life Technologies) supplemented with 10% Inactivated Fetal Calf Serum (IFS, Sigma and Gemini), 2 mM glutamine, and penicillin/streptomycin. HeLa, HEK-293T, and Ben cells were cultured in DMEM (Life Technologies) supplemented with 10% IFS and penicillin/streptomycin. […] To compare proliferation of cells in glucose to proliferation in galactose, RPMI without glucose (Life Technologies) was supplemented with dialyzed IFS and either 10 mM glucose or galactose. All cell lines were maintained at 37° C. and 5% CO2.
10,000 cells per well were seeded into 96-well plates in triplicate. Cell titer glo reagent (Promega) was added to one plate 1 hour after seeding and luminescence was measured, while a second plate was read-out 4 days after seeding. Number of doublings in 4 days was determined by calculating the loge fold-change in signal between day 0 and 4. For cell counting experiments, 100,000 cells/ml were seeded in a 6-well plate in triplicates and counted immediately after seeding and from then on every 24 hours for 5 sequential days.

SMILES: O=CO [formate]
- rescue of the proliferation defect of MCART1-null cells by addition of metabolites to the media: not rescued
